The values below are quoted from earlier work in PubChem BioAssay AID1259409 (Chemical Carcinogenesis Research Information System (CCRIS), 2018).

For the data set, the system named is rodent chemically induced tumor inhibition, incidence and multiplicity. The data set is described as follows: CCRIS tumor inhibitor studies. To be noted: Carcinogen: DIETHYLNITROSAMINE, 55-18-5, N-METHYLNITROSOUREA, 684-93-5, 1,2-DIMETHYLHYDRAZINE, 540-73-8, N-BUTYL-N-(4-HYDROXYB, Carcinogen: DIETHYLNITROSAMINE, 55-18-5, N-METHYLNITROSOUREA, 684-93-5, 1,2-DIMETHYLHYDRAZINE, 540-73-8, N-BUTYL-N-(4-HYDROXYB, Dose [Inhibitor]: 0, Route [Inhibitor]: ORAL, Species: RAT, Strain/Sex: F344/MALE, Dose [Carcinogen]: 100 MG/KG DEN ONCE, 20 MG/KG MNU 4 TIMES, 40 MG/KG DMH 4 TIMES, 0.05% BBN IN DRINKING WATER FOR 2 WK, 0.1% DHPN IN D, Dose [Carcinogen]: 100 MG/KG DEN ONCE, 20 MG/KG MNU 4 TIMES, 40 MG/KG DMH 4 TIMES, 0.05% BBN IN DRINKING WATER FOR 2 WK, 0.1% DHPN IN D, Promoter: NONE USED.

With `O=c1c(O)c(-c2ccc(O)c(O)c2)oc2cc(O)cc(O)c12`, the “tumour outcome (control, treated, inhibition, significance)” value is recorded as 6/14 (43%), 2/13 (15%), 65%, not significant (1% IN DIET FOR 4 WK BEGINNING 1 DAY PRIOR TO CARCINOGEN TREATMENT (STUDY DURATION: 36 WK), Target Tissue: Type of Lesion: LUNG: ADENOMA); 6/14 (43%), 1/13 (8%), 81%, p<0.05 (1% IN DIET FOR 4 WK BEGINNING 1 DAY PRIOR TO CARCINOGEN TREATMENT (STUDY DURATION: 36 WK), Target Tissue: Type of Lesion: SMALL INTESTINE: ADENOMA); 5/14 (36%), 2/13 (15%), 58%, not significant (1% IN DIET FOR 4 WK BEGINNING 1 DAY PRIOR TO CARCINOGEN TREATMENT (STUDY DURATION: 36 WK), Target Tissue: Type of Lesion: SMALL INTESTINE: CARCINOMA); 4/14 (29%), 3/12 (25%), 14%, not significant (1% IN DIET FOR 32 WK BEGINNING POST CARCINOGEN TREATMENT (STUDY DURATION: 36 WK), Target Tissue: Type of Lesion: KIDNEY: ADENOMA); 7/14 (50%), 4/12 (33%), 34%, not significant (1% IN DIET FOR 32 WK BEGINNING POST CARCINOGEN TREATMENT (STUDY DURATION: 36 WK), Target Tissue: Type of Lesion: KIDNEY: NEPHROBLASTOMA); 3/14 (21%), 4/12 (33%), -57%, not significant (1% IN DIET FOR 32 WK BEGINNING POST CARCINOGEN TREATMENT (STUDY DURATION: 36 WK), Target Tissue: Type of Lesion: LARGE INTESTINE: CARCINOMA).
